This is an account of results in ChEMBL document CHEMBL1275412, “Detection of new arr-4 and arr-5 gene cassettes in clinical Pseudomonas aeruginosa and Klebsiella pneumoniae strains from Brazil” (2008).

Test [1] has as its system Klebsiella pneumoniae. Kind of test: Antibacterial activity against Klebsiella pneumoniae K56 with arr-5 gene by Etest method. It is filed as functional.
Test [2] deals with Klebsiella pneumoniae. Kind of test: Antibacterial activity against Klebsiella pneumoniae ATCC 10031 control strain by Etest method.
Test [3] has as its system Klebsiella pneumoniae. Kind of test: Antibacterial activity against Klebsiella pneumoniae K688 with arr-5 gene by Etest method. It is filed as functional.
For test [4], the system named is Klebsiella pneumoniae. Nature of the test: Antibacterial activity against Klebsiella pneumoniae K224 with arr-5 gene by Etest method. It is filed as functional.
For test [5], the system named is Escherichia coli. Nature of the test: Antibacterial activity against Escherichia coli […] harboring arr-4 gene after 20 hrs by Etest method. It is filed as functional.
Test [6] relates to Klebsiella pneumoniae. Kind of test: Antibacterial activity against Klebsiella pneumoniae K830 with arr-5 gene by Etest method. It is filed as functional.
Test [7] concerns Escherichia coli. Nature of the test: Antibacterial activity against Escherichia coli […] harboring arr-5 gene after 20 hrs by Etest method. It is filed as functional.
In the next test the test system is Pseudomonas aeruginosa. Kind of test: Antibacterial activity against Pseudomonas aeruginosa PS1111 with arr-4 gene by Etest method. It is filed as functional.

≈ marks a conversion by molar mass, not a printed value.

The MIC is the lowest concentration found to suppress growth. In the case of `CO[C@H]1/C=C/O[C@@]2(C)Oc3c(C)c(O)c4c(O)c(c(/C=N/N5CCN(C)CC5)c(O)c4c3C2=O)NC(=O)/C(C)=C\C=C\[C@H](C)[C@H](O)[C@@H](C)[C@@H](O)[C@@H](C)[C@H](OC(C)=O)[C@@H]1C` [RIFAMPIN], the minimal inhibitory concentration (MIC) in the test with Klebsiella pneumoniae [1] was 8 µg/mL (≈ 9.72 µM); against Klebsiella pneumoniae [2], 6 µg/mL (≈ 7.29 µM); against Klebsiella pneumoniae [3] it was 8 µg/mL (≈ 9.72 µM); against Klebsiella pneumoniae [4] it was 8 µg/mL (≈ 9.72 µM); against Escherichia coli [5], over 256 µg/mL; with Klebsiella pneumoniae [6], over 32 µg/mL. Also, the MIC against Escherichia coli [7] was over 256 µg/mL; in the test with Pseudomonas aeruginosa, over 32 µg/mL.
